From patent publication US4229584A, “Ureylenebis(anionic substituted phenylene carbonyl)imino naphthalene sulfonic acids and naphthalene carboxylic acids and their salts” (American Cyanamid Company, priority 1978, dated 1980)
Counter-ions that a name gives are not always drawn. Like-named read-outs stand apart in the source and are kept apart here.

Assays:
shunt pathway = assay: Test, Code 036 (C-Shunt inhibitor): lysis of human erythrocytes in autologous serum via shunt pathway activated by cobra venom factor; format: cell-based; settings: activity in wells, twofold serial dilution; higher well number indicates higher activity
From the text: (§1) An active inhibitor protects C2 from C1 and C4; (ii) Test, Code 035 (C3-C9 inhibitor)--This test determines the ability of the late components of human complement (C3-C9) to lyse EAC 142 in the presence of appropriate dilutions of the test compound. An active inhibitor protects EAC 142 from lysis by human C3-C9; (iii) Test, Code 036 (C-Shunt inhibitor)--In this test human erythrocytes rendered fragile are lysed in autologous serum via the shunt pathway activated by cobra venom factor in the presence of appropriate dilutions of the test compound. Inhibition of the shunt pathway results in failure of lysis; (iv) Forssman Vasculitis Test--Here, the well known complement dependent lesion, Forssman vasculitis, is produced in guinea pigs by intradermal injection of rabbit anti-Forssman antiserum. The lesion is measured in terms of diameter, edema and hemorrhage and the extent to which a combined index of these is inhibited by prior intraperitoneal injection of the test compound at 200 mg/kg is then reported, unless otherwise stated; (v) Forssman Shock Test--Lethal shock is produced in guinea pigs by an i.v. injection of anti-Forssman antiserum and the harmonic mean death time of treated guinea pigs is compared with that of simultaneous controls; (vi) Complement Level Reduction Test--In this test, the above dosed guinea pigs, or others, are bled for serum and the complement level is determined in undiluted serum by the capillary tube method of U.S. Pat. No. 3,876,376 and compared to undosed control guinea pigs; and (vii) Cap 50 Test--Here, appropriate amounts of the test compound are added to a pool of guinea pig serum in vitro, after which the undiluted serum capillary tube assay referred to above is run. The concentration of compound inhibiting 50% is reported.
(§2) **Activity in wells, a serial dilution assay. Higher well number indicate
(§3) higher activity. The serial dilutions are twofold.

[1] = test system: late components of human complement (C3-C9); assay: Test, Code 035 (C3-C9 inhibitor): lysis of EAC 142 by late components of human complement; format: cell-based; settings: activity in wells, twofold serial dilution; higher well number indicates higher activity
From the text: as §1, §2, §3

human C1 = target: T1, human C1 (Homo sapiens, UniProt P09871); assay: Test, Code 026 (C1 inhibitor): protection of fluid phase human C2 from activated human C1; format: biochemical; settings: activity in wells, twofold serial dilution; higher well number indicates higher activity
T1 construct: substrate fluid phase human C2, in presence of C4
From the text: as §1, §2, §3

whole complement = assay: In vivo complement inhibition in guinea pigs (whole complement of serum, capillary tube assay); set-up: species or system guinea pig; settings: Cavia porcellus, ip, intraperitoneal, 200 mg/kg
From the text: as §1
With reference to Table I, guinea pigs weighing about 300 g were dosed intravenously (i.v.) or intraperitoneally (i.p.) with 200 mg/kg of the test compound dissolved in saline and adjusted to pH 7-8. […] The serum was tested for whole complement using the capillary tube assay. Percent inhibition was calculated by comparison with simultaneous controls. The results appear in Table I together with results of tests, Code 026, 035, 036, Cap 50, percent inhibition and Forssman shock.

complement system = settings: cited from earlier work; for anticomplementary effect: British Journal of Experimental Pathology, 33, 327-339 (1952)
[2] = The New England Journal of Medicine, 286, 808-812 (1972); cited from earlier work

T1 sequence (P09871 16-688): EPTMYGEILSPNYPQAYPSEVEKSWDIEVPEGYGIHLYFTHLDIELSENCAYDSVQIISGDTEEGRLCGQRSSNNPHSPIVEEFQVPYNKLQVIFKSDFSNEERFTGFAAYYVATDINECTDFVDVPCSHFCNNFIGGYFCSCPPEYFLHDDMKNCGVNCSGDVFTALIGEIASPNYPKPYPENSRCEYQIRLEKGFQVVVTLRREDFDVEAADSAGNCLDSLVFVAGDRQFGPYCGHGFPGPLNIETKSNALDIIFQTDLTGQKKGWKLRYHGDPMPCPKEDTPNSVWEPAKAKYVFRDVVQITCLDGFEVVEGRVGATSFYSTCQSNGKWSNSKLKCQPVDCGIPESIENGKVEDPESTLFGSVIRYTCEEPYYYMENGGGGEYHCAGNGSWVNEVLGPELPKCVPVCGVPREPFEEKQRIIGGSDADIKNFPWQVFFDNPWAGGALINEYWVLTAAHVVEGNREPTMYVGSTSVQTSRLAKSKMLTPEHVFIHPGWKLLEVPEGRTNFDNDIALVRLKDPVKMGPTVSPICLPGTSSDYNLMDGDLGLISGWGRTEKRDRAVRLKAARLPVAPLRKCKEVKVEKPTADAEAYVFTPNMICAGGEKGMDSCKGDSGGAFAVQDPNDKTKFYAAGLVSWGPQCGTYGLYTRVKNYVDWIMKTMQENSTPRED
T1 sequence (P00736 18-705 partner): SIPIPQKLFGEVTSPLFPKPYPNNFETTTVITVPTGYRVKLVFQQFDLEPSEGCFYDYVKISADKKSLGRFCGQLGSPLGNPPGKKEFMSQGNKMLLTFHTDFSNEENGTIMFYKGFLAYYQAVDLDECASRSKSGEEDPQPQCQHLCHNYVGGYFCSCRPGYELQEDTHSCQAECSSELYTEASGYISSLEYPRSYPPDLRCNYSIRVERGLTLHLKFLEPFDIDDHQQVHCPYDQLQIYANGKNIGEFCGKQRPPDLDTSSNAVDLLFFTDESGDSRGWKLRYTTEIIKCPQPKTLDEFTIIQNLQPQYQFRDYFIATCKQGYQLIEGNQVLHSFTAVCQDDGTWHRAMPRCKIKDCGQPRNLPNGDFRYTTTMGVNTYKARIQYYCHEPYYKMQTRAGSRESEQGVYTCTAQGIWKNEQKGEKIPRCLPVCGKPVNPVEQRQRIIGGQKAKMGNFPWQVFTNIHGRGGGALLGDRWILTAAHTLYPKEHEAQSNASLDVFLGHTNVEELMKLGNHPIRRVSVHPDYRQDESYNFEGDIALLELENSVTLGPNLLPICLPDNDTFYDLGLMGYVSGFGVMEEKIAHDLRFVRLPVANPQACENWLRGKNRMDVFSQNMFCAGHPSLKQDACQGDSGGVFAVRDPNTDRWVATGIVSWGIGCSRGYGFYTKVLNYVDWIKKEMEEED
T1 sequence (P02745 23-245 partner): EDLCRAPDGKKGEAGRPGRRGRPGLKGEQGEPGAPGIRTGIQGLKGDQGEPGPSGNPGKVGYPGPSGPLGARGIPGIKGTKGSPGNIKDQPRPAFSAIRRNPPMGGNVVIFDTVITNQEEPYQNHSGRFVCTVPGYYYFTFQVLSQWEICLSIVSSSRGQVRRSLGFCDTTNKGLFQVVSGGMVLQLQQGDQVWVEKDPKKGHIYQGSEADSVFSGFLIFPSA
T1 sequence (P02746 28-253 partner): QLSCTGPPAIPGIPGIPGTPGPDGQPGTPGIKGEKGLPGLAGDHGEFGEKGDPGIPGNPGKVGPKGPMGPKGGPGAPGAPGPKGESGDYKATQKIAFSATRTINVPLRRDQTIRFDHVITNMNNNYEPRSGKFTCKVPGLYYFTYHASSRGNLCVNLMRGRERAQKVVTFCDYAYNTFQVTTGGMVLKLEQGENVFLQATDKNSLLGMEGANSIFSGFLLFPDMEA
T1 sequence (P02747 29-245 partner): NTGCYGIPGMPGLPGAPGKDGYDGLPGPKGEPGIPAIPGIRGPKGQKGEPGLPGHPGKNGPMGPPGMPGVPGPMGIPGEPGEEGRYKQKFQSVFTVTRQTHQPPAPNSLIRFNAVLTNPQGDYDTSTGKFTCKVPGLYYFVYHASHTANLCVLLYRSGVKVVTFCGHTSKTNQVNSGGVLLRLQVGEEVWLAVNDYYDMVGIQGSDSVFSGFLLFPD

For `O=C(Nc1ccc(C(=O)Nc2cc(S(=O)(=O)O)cc3cccc(S(=O)(=O)O)c23)c(S(=O)(=O)O)c1)Nc1ccc(C(=O)Nc2cc(S(=O)(=O)O)cc3cccc(S(=O)(=O)O)c23)c(S(=O)(=O)O)c1` [8,8'-[Ureylenebis(2-sulfo-4,1-phenylenecarbonyl)imino]di-1,6-naphthalenedisulfonic acid hexasodium salt], the “Shunt Inhibition 036* Wells” value (shunt pathway) was “+1 Wells”, the “C-Late 035* Wells” value [1] was “+1 Wells” and the “C1 026* Wells” value (human C1) was “+5 Wells”. The change in vivo at 200 mg/kg (whole complement; 0.5 h, 30 mins., read-out: In Vivo Activity (Guinea Pig) % Inhibition Intraperitoneal 30 mins.) was -10%, the change in vivo at 200 mg/kg (whole complement; 1 h, 60 mins., read-out: In Vivo Activity (Guinea Pig) % Inhibition Intraperitoneal 60 mins.) was -18% and the change in vivo at 200 mg/kg (whole complement; 2 h, 120 mins., read-out: In Vivo Activity (Guinea Pig) % Inhibition Intraperitoneal 120 mins.) was -31%.
For `Cc1ccc(C(=O)Nc2ccc(S(=O)(=O)O)c3cc(S(=O)(=O)O)cc(S(=O)(=O)O)c23)cc1NC(=O)c1cccc(NC(=O)Nc2cccc(C(=O)Nc3cc(C(=O)Nc4ccc(S(=O)(=O)O)c5cc(S(=O)(=O)O)cc(S(=O)(=O)O)c45)ccc3C)c2)c1` [Suramin], the “inhibition of the complement system” value (complement system; Clin. Exp. Immunol., 10, 127-138 (1972)) is given as “competitive inhibitor of the complement system”.
In the case of `Nc1ccc2cc(S(=O)(=O)O)cc(O)c2c1N=Nc1ccc(NC(=O)Nc2ccc(N=Nc3c(N)ccc4cc(S(=O)(=O)O)cc(O)c34)c(S(=O)(=O)O)c2)cc1S(=O)(=O)O` [chlorazol fast pink, 3,3'-ureylenebis-[6-(2-amino-8-hydroxy-6-sulfo-1-naphthylazo)]benzenesulfonic acid, tetrasodium salt], the anticomplementary effect (complement system) is given as “anticomplementary effect”.
In the case of `NCCCCCC(=O)O` [epsilon-aminocaproic acid], the “treatment of hereditary angioneurotic edema” value [2] is listed as “used with success”.
For `NC[C@H]1CC[C@H](C(=O)O)CC1` [tranexamic acid], the “treatment of hereditary angioneurotic edema” value [2] is given as “used with success”.
For heparin, the anticomplementary effect (complement system) is given as “anticomplementary effect”.
